From PMC6155631, “Immobilized Trienzymatic System with Enhanced Stabilization for the Biotransformation of Lactose” (Molecules : A Journal of Synthetic Chemistry and Natural …, 2017) come the findings set out here.

The target of this experiment is T1, β-galactosidase from Bacillus circulans (Biolacta N-5) (Niallia circulans, UniProt E5RWQ2).
T1 construct: gene bga; commercial Biolacta N-5 (Daiwa Kasei), partially purified; several isoforms, called monomeric
The experiment is described as follows: batch hydrolysis, HPLC. Type of experiment: biochemical. Particulars: soluble enzyme together with P1 and P2; Mozzarella whey lactose, 50 °C, 6 h. The source says:
batch hydrolysis, HPLC on β-galactosidase from Bacillus circulans (Biolacta N-5)

T1 sequence (E5RWQ2 24-1737): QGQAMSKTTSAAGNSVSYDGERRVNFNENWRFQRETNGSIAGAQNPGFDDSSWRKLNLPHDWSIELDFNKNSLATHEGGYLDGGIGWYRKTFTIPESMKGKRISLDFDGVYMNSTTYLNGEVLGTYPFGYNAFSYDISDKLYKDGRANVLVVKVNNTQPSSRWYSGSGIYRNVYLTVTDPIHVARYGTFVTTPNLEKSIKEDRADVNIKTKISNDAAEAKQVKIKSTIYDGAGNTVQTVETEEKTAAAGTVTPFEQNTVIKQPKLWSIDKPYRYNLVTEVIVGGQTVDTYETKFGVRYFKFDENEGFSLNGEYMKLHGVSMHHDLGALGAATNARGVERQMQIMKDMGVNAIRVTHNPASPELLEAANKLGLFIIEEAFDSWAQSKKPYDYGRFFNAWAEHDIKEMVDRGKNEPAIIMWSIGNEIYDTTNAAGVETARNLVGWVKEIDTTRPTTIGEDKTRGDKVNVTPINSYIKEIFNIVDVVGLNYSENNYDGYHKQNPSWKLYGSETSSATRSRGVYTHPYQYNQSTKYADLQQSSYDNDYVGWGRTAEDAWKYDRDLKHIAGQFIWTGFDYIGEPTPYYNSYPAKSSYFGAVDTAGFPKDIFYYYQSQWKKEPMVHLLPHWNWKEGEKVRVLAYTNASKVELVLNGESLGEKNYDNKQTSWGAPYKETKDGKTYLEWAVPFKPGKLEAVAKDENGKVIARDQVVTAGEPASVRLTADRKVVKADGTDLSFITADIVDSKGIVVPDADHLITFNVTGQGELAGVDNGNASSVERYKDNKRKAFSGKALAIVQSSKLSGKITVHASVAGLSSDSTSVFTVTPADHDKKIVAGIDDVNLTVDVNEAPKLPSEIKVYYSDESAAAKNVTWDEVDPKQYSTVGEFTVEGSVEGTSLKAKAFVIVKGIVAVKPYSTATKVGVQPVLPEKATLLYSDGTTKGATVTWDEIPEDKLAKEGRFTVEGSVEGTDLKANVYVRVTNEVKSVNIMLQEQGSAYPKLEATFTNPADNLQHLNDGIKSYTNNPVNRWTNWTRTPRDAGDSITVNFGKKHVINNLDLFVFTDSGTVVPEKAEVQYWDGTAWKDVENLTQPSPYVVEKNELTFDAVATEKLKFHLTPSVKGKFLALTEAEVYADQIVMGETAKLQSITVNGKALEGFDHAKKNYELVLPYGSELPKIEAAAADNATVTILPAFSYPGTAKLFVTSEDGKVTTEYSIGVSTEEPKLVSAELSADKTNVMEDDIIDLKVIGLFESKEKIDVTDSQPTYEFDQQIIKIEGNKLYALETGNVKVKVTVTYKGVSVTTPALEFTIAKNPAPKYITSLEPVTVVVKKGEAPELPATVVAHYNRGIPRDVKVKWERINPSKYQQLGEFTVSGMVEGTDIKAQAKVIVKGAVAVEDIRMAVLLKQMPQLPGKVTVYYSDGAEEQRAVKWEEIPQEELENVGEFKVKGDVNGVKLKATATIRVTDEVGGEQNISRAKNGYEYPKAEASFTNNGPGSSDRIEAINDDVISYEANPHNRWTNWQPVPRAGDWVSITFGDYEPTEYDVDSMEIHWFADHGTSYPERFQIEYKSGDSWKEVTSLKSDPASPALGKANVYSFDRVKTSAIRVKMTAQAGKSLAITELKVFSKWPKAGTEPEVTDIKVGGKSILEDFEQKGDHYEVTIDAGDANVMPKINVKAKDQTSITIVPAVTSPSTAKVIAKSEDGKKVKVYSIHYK

For `OC[C@H]1O[C@@H](O[C@H]2[C@H](O)[C@@H](O)C(O)O[C@@H]2CO)[C@H](O)[C@@H](O)[C@H]1O` (stereo partly shown) [lactose], the “Lactolysis (%)” value worked out at 76 ± 1%.
